# Measurements reported in patent publication US20170165363A1, “CANCER CELL MIGRATION INHIBITORS AND THEIR USE IN THERAPEUTIC TREATMENTS” (THE JOHNS HOPKINS UNIVERSITY, priority 2015, published 2017).
# Tested on: human fibrosarcoma HT1080 cells
# Assay: Velocity of matrix-embedded cells in 3D collagen I matrix (live-cell tracking)
# Type: cell-based
# Details: for cell velocity / cell migration on addition of recombinant cytokine: HT1080 seeded at low density (10 cells/mm^3), combination at the precise concentrations found at 50 cells/mm^3, ratio 5:2; for cell velocity: human fibrosarcoma cells embedded in a 3D matrix at LD (ρ=10) and HD (ρ=50), compared to cells exposed to fresh medium (0); for cell-density-dependent migration: matrix-embedded cells at low and high cell densities
# Procedure: HT1080 cells were embedded in 2mg/ml type I collagen gel as described previously by Fraley et al^20. Briefly, cell suspensions containing 5000 to 75,000 cells in 1:1 (v/v) ratio of cell culture media and reconstitution buffer were mixed with appropriate volume of soluble rat-tail collagen I (Corning Inc.) to obtain a final collagen I concentration of 2 mg/ml. A calculated amount of 1M NaOH was added quickly and the final solution was mixed well to bring the pH to ˜7. The cell suspensions was added to a 24-well coverslip-bottom cell-culture dish and immediately transferred to an incubator maintained at 36° C. to allow polymerization. Fresh medium was added 1 h before imaging. MDA MB 231 and U-87 cells were embedded in 1 mg/ml type I collagen matrix
# Phase-contrast images of matrix-embedded cells were recorded 2 min apart for 16.5 h using a Cascade 1K CCD camera (Roper Scientific) mounted on a Nikon TE2000 microscope with a 10× objective lens. Single cells were tracked using Metamorph imaging software. A custom MATLAB program calculated the velocity for each cell using the x- and y-coordinates obtained from tracking data using the following equation: […]
# Recombinant IL-6 and IL-8 (R&D systems) reconstituted in DPBS (Life technologies) were added to matrix embedded cells with a cell density of 10 cells/mm^3 and imaged as described above (See velocity and protrusion topology of matrix embedded cells). Matrix embedded cells with cell densities of 10 cells/mm^3 and 50 cells/mm^3 were exposed to specific IL-6 and IL-8 functional antibodies (Proteintech) at a concentration of 0.5 μg/mL. Matrix embedded cells with cell densities of 10 cells/mm^3 and 50 cells/mm^3 were exposed to Tocilizumab (Roche) and Reparixin (Dompe pharmaceuticals) STAT3 and WASF3 activity
# Matrix embedded with cell densities of 10 cells/mm^3 and 50 cells/mm^3 were exposed to JAK2 inhibitor, AG-490 (Santa Cruz Biotechnology), STAT3 inhibitor, S31-201, (Santa Cruz Biotechnology) and ARP 2/3 complex inhibitor, CK 666, (Sigma-Aldrich) for 1 h before cells were imaged as described above. (See velocity and protrusion topology of matrix embedded cells)
Molecule,cell velocity,cell-density-dependent migration,other results
recombinant IL-6: human recombinant IL-6 (R&D systems),–,–,cell velocity / cell migration on addition of recombinant cytokine: do not increase cell velocity; cell velocity / cell migration on addition of recombinant cytokine (listed as IL-6): no effect on cell migration
Cc1ccc(S(=O)(=O)OCC(=O)Nc2ccc(C(=O)O)c(O)c2)cc1 [S3I-201],Decreased cell velocity,prevented cell-density-dependent migration,–
Cc1[nH]c2ccccc2c1CCNC(=O)c1ccccc1F [CK666],Decreased cell velocity,prevented cell-density-dependent migration,–
recombinant IL-8: human recombinant IL-8 (R&D systems),–,–,cell velocity / cell migration on addition of recombinant cytokine: do not increase cell velocity; cell velocity / cell migration on addition of recombinant cytokine (listed as IL-8): no effect on cell migration
"CC(C)Cc1ccc([C@@H](C)C(=O)NS(C)(=O)=O)cc1 [Reparixin, (2R)-2-[4-(2-methylpropyl)phenyl]-N-methylsulfonylpropanamide]",decreased cell velocity,–,–
"Tocilizumab: a recombinant humanized, anti-human IL-6 receptor monoclonal antibody currently used in the treatment of Rheumatoid Arthritis",decreased cell velocity,–,–
N#C/C(=C/c1ccc(O)c(O)c1)C(=O)NCc1ccccc1 [AG-490],Decreased cell velocity,prevented cell-density-dependent migration,–
